Assay results from patent US20210046096A1, “Pharmaceutical Composition of Brigatinib” (Sandoz AG, priority 2018, published 2021).
Read-outs that look alike come from different tables or passages of the source. Each block holds one compound with its values, some of them ahead of it.

Tests used:
[1] = Moisture stability at accelerated stress conditions, analysed by PXRD; type: physicochemical; details: open storage, physical form by PXRD
Protocol: Powder X-ray diffraction was performed with a PANalytical X'Pert PRO diffractometer equipped with a theta/theta coupled goniometer in transmission geometry, Cu-Kalpha1,2 radiation (wavelength 0.15419 nm) with a focusing mirror and a solid state PIXcel detector. Diffractograms were recorded at a tube voltage of 45 kV and a tube current of 40 mA, applying a stepsize of 0.013° 2-Theta with 40 s per step (255 channels) in the angular range of 2° to 40° 2-Theta at ambient conditions.
Moisture stability at accelerated stress conditions was performed in a Memmert constant climate chamber HPP110. 30-50 mg of a given solid composition prepared according to the Examples and Comparative Example herein were exposed to an atmosphere having a relative humidity of 75±0.5% and a temperature of 40±0.5° C. for a period of time as indicated in Tables 1-3 below and analyzed via PXRD as described above.
Brigatinib (1.50 g, e.g. prepared according to the procedures disclosed in WO 2016/065028 A1, part V) was dissolved in 75 mL of acetonitrile/water solution (volume ratio 50:50). The solution was filtered. The homogeneous solution was frozen in a bath of liquid nitrogen and lyophilized at a pressure of from 0.02 to 1.0 mbar, yielding amorphous brigatinib, as confirmed by the PXRD depicted in FIG. 1. The obtained amorphous brigatinib was stored open under accelerated stability conditions (temperature: 40° C., relative humidity: 75%).
Brigatinib (about 100 mg, e.g. prepared according to the procedures disclosed in WO 2016/065028 A1, part V) and the organic polymer (about 100 mg) according to Table 2 were dissolved in 7 to 8 mL of acetonitrile/water solution (volume ratio 50:50). The homogeneous solution was frozen in a bath of liquid nitrogen and lyophilized at a pressure of from 0.02 to 1.0 mbar, yielding an amorphous solid dispersion of brigatinib. The so obtained solid dispersion was open stored under accelerated stability conditions (temperature: 40° C., relative humidity: 75%) for three weeks. […]

[2] = Stability in the amorphous state upon storage (PXRD), general statements; type: physicochemical; details: conditions not given, judged by PXRD
Description: The brigatinib in the context of the solid dispersion of the present invention is stable in the amorphous state upon storage, as judged by the absence of characteristic PXRD peaks after storage. […] Also in the context of solid dispersions with carriers such as polyvinylpyrrolidon PVP-40000 or Syloid® AL-1FP, amorphous brigatinib converts to crystalline brigatinib upon storage.

[3] = cited from earlier work
[4] = Thermogravimetric mass spectroscopy (TGMS) thermal stability; type: physicochemical; details: heated 25° C. to 250° C. at 10° C./min
Protocol: Thermogravimetric analysis (TGA) was performed on a Mettler Toledo TGA/DSC 1 instrument. Samples were heated in 100 μl aluminium pans closed with aluminium lids. Lids were automatically pierced at the beginning of the measurement. Samples were initially kept at 25° C. for 2.5 minutes and then heated from room temperature to 250° C. at a rate of 10° C./min. Nitrogen (purge rate 30 ml/min) was used as purge gas.
Mass spectrometry (MS) measurements, coupled with thermogravimetric analysis (TGA), were performed with a Pfeiffer GSD 320 ThermoStar Gas Analysis System. A part of the headspace was evacuated with a capillary placed near the TG sample pan, and mass fragments between 1-100 atomic mass units (amu) were analyzed simultaneously without further separation applying a secondary electron multiplier (SEM) for signal amplification.

[5] = as described in WO 2016/065028 A1

PXRD analysis after storage at 40° C. and 75% RH for 1 week [1]: Form A
PXRD analysis after storage at 40° C. and 75% RH for 1 week ([1]; listed as neat amorphous brigatinib): contained crystalline Form A
PXRD analysis after storage at 40° C. and 75% RH for 3 weeks ([1]; 3 weeks): Form A
SMILES: COc1cc(N2CCC(N3CCN(C)CC3)CC2)ccc1Nc1ncc(Cl)c(Nc2ccccc2P(C)(C)=O)n1 [Brigatinib, 5-chloro-N4-[2-(dimethylphosphoryl)phenyl]-N2-[2-methoxy-4-[4-(4-methylpiperazin-1-yl)piperidin-1-yl]phenyl]pyrimidine-2,4-diamine]
Stability of the amorphous state upon storage [2]: readily converts to crystalline form A of brigatinib upon storage for as short as one week only

SMILES: COc1cc(N2CCC(N3CCN(C)CC3)CC2)ccc1Nc1ncc(Cl)c(Nc2ccccc2P(C)(C)=O)n1 [Form B, 5-chloro-N4-[2-(dimethylphosphoryl)phenyl]-N2-[2-methoxy-4-[4-(4-methylpiperazin-1-yl)piperidin-1-yl]phenyl]pyrimidine-2,4-diamine]
Hygroscopicity [3, 5]: hydroscopic
Relative humidity at which the form reversibly converts to hydrated crystalline forms C or D [3, 5]: above 30%
Temperature at which the form transforms to form A ([3]; elevated temperature, WO 2016/065028 A1): above 150 °C

Temperature at which the chemistry of the sample changes (TGMS) [4]: about 100 °C
SMILES: COc1cc(N2CCC(N3CCN(C)CC3)CC2)ccc1Nc1ncc(Cl)c(Nc2ccccc2P(C)(C)=O)n1 [brigatinib form A, 5-chloro-N4-[2-(dimethylphosphoryl)phenyl]-N2-[2-methoxy-4-[4-(4-methylpiperazin-1-yl)piperidin-1-yl]phenyl]pyrimidine-2,4-diamine]
Hygroscopicity ([3]; as described in WO 2016/065028 A1, listed as Form A): non-hygroscopic
